From patent EP4578856A1, “HETEROCYCLIC COMPOUND” (Ubience Inc., priority 2022, dated 2024)

Experiments:
ROCK2 protein [1] = biological target: T1, ROCK2 protein (Homo sapiens, UniProt O75116); assay: ROCK2 kinase inhibitory activity, mobility shift assay (MSA, Carna Biosciences); type: biochemical; design: GST (N); purchased Carna Biosciences, Inc; host or cells: baculovirus expression system; conditions: read-out: ROCK2 inhibition rate; for inhibition at 1 µM: evaluation concentration 1 µM
Description: The ROCK2 kinase inhibitory activity was measured using a mobility shift assay (MSA) provided by Carna Biosciences, Inc.
The test compound was dissolved in DMSO and further diluted with DMSO to prepare a solution having a concentration 100 times the evaluation concentration. The solution was further diluted 25 times with an assay buffer (20 mmol/L HEPES, 0.01% Triton (registered trademark) X-100, 1 mmol/L DTT, pH 7.5) to obtain a test compound solution.
The human ROCK2 kinase was expressed by fusing the catalytic domain (1 to 553 amino acids of Accession No. NP_004841.2) with GST at the N-terminus using the baculovirus expression system. GST-ROCK2 was purified by glutathione sepharose chromatography.
A 4-fold concentration substrate (LIMKtide, 1000 nmol/L) /ATP (5 µmol/L)/metal solution (Mg, 5 mmol/L) was prepared with kit buffer (20 mmol/L HEPES, 0.01% Triton (registered trademark) X-100, 5 mmol/L DTT, pH 7.5). A 2-fold concentration kinase solution was prepared with assay buffer. 5 µL of a 4-fold concentration test compound solution, 5 µL of a 4-fold concentration substrate/ATP/metal solution, and 10 µL of a 2-fold concentration kinase solution were mixed in a well of a polypropylene 384 well plate, and the mixture was reacted at room temperature for 1 hour. 70 µL of termination buffer (127 mmol/L HEPES, 0.01% Triton (registered trademark) X-100, 26.7 mmol/L EDTA-2Na, 1% DMSO, pH 7.5) was added to stop the reaction. The substrate peptide and the phosphorylated peptide in the reaction solution were separated and quantified using a LabChip (trademark) system (Perkin Elmer).
The kinase reaction was evaluated by the product ratio (P/(P + S)) calculated from the substrate peptide peak height (S) and the phosphorylated peptide peak height (P).
The average signal of the control well including all the reaction components was set to 0% suppression, the average signal of the background well (no enzyme added) was set to 100% suppression, and the inhibition rate was calculated from the average signal of the test compound test well.
The ROCK2 inhibition rate and the evaluation concentration of the test compound are shown in Table 4-1, and the IC50 value of the inhibitory activity is shown in Table 4-2. […]
Target sequence in this assay (O75116 1-553): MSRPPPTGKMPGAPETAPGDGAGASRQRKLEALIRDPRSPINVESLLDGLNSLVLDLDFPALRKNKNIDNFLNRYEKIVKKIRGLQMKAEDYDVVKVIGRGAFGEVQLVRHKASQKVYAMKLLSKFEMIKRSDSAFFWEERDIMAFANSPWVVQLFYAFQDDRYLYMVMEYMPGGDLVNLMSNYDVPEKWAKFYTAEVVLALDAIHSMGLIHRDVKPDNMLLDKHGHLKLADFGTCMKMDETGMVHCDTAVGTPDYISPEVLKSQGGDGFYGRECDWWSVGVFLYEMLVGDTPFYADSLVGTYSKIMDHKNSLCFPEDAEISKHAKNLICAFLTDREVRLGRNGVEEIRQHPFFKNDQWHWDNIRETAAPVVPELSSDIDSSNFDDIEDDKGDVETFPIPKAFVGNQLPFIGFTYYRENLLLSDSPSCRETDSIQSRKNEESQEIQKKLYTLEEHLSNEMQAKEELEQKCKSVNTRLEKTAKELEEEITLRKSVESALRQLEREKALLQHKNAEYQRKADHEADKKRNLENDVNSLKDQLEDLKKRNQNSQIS

ROCK2 protein [2] = biological target: T1, ROCK2 protein; assay: Degradation inducing activity of ROCK2 protein in HUVEC cells, Western blotting (Simple Western JESS); type: cell-based; design: endogenous in cells; host or cells: HUVEC (ATCC CRL-1730); conditions: HUVEC, 24 h; for inhibition at 1 µM: degradation rate at 1 µM; for inhibition at 10 µM: degradation rate at 10 µM
Method in brief: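 HUVEC cells treated 24 h with compound at 10 µM or 1 µM, then lysed; ROCK2 quantified by capillary Western (Simple Western JESS) using rabbit mAb D1B1, normalized to total loaded protein. Degradation rate (%) calculated relative to DMSO control set at 100%, binned A ≥75%, B 50–75%, C 25–50%, D <25%.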
Target sequence in this assay (O75116 whole entry): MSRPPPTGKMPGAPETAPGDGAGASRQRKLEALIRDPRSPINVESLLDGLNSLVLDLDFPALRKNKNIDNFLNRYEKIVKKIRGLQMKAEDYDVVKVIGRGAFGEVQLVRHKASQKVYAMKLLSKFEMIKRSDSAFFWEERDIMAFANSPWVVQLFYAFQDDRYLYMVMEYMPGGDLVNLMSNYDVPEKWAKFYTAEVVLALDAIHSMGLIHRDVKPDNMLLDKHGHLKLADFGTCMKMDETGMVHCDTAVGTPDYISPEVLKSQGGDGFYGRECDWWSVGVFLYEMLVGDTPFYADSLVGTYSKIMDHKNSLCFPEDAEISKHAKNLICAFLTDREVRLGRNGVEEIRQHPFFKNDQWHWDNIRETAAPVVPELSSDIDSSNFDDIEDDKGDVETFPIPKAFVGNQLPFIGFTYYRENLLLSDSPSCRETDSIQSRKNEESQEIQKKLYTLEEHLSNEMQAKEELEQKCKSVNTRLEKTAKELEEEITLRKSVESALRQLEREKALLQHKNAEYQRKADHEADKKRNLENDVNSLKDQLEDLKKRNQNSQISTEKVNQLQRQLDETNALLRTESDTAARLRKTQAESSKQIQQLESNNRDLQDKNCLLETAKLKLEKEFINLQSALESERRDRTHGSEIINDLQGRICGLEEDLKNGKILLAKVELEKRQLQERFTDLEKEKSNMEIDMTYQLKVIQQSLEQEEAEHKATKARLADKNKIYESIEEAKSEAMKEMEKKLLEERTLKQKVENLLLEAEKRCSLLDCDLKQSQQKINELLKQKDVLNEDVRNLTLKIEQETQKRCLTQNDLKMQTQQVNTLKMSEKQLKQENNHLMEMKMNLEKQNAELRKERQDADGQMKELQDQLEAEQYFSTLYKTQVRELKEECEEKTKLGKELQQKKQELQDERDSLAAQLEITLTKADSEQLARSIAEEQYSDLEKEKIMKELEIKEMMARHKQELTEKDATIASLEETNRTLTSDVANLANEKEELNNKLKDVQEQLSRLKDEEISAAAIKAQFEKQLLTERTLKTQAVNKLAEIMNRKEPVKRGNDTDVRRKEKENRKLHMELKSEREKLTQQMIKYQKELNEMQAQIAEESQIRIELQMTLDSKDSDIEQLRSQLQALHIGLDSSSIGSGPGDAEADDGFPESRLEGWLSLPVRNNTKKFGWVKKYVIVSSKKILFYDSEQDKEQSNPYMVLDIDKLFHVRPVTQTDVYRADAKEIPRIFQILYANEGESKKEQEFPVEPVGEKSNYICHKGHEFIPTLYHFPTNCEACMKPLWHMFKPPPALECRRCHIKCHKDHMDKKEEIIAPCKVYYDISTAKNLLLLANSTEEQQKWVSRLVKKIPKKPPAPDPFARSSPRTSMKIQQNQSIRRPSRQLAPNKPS

Row | inhibition at 10 µM (ROCK2 protein [1]; evaluation concentration 10 µM) [%] | inhibition at 1 µM (ROCK2 protein [2]) [%] | inhibition at 10 µM (ROCK2 protein [2]) [%] | inhibition at 1 µM (ROCK2 protein [1]) [%] | Structure (SMILES)
1 | ≥ 75 | ≥ 75 | 50 to 75 | – | COC[C@H]1CN[C@H](C)CN1CC(=O)N1CC(C)(C)c2nc(CN(C)CCOCCOCCOCCN[C@H](C)c3ccc(C(=O)Nc4ccncc4)cc3)c(Cc3ccc(F)cc3)cc21 [Example 24, 4-((R)-1-(6-(4-Fluorobenzyl)-1-(2-((2R,5R)-2-(methoxymethyl)-5-methylpiperazin-1-yl)acetyl)-3,3-dimethyl-2,3-dihydro-1H-pyrrolo[3,2-b]pyridin-5-yl)-2-methyl-5,8,11-trioxa-2,14-diazahexadecan-15-yl)-N-(pyridin-4-yl)benzamide]
2 | – | 50 to 75 | 50 to 75 | 25 to 50 | COC[C@H]1CN[C@H](C)CN1CC(=O)N1CC(C)(C)c2nc(CN(C)CCOCCOCCOCCN[C@H](Cc3cccc(F)c3)C(=O)Nc3ccc(-c4ccncc4)cc3)c(Cc3ccc(F)cc3)cc21 [Example 31, (R)-15-(3-Fluorobenzyl)-1-(6-(4-fluorobenzyl)-1-(2-((2R,5R)-2-(methoxymethyl)-5-methylpiperazin-1-yl)acetyl)-3,3-dimethyl-2,3-dihydro-1H-pyrrolo[3,2-b]pyridin-5-yl)-2-methyl-N-(4-(pyridin-4-yl)phenyl)-5,8,11-trioxa-2,14-diazahexadecan-16-amide]
3 | – | 50 to 75 | 50 to 75 | < 25 | COC[C@H]1CN[C@H](C)CN1CC(=O)N1CC(C)(C)c2ncc(Cc3cccc(OCCOCCOCCOCCOCCOCCOCCOCCN[C@H](Cc4cccc(F)c4)C(=O)Nc4ccc(-c5ccncc5)cc4)c3)cc21 [Example 56, (R)-2-(3-Fluorobenzyl)-26-(3-((1-(2-((2R,5R)-2-(methoxymethyl)-5-methylpiperazin-1-yl)acetyl)-3,3-dimethyl-2,3-dihydro-1H-pyrrolo[3,2-b]pyridin-6-yl)methyl)phenoxy)-N-(4-(pyridin-4-yl)phenyl)-6,9,12,15,18,21,24-heptaoxa-3-azahexacosanamide]
